Source: patent publication US4918056A, “2-substituted arabinopyranosyl nucleosides and nucleotides” (priority 1986, dated 1990)

Tests used:
Lewis lung carcinoma = test: Therapeutic activity in C57/B16 mice with s.c. Lewis lung carcinoma; assay type: in vivo, mouse (C57/B16 female); settings: for % ILS (increase in life span): based on median survival; for Median survival: control 22
Experimental: (§1) The therapeutic activity of 85024 was evaluated in C57/B16 female mice implanted s.c. with either Lewis lung carcinoma or M5076 sarcoma (Table 5).
(§2) C57/B16 female mice were implanted s.c. using a trochar on day 0 with a 50 mg piece of either Lewis lung carcinoma of M5076 sarcoma. Drugs were administered i.p. once daily on days 3, 4, 5, 6 and 7. Tumor size (two perpendicular diameters) was measured with calipers and volume was estimated algebraically. Survival was monitored daily for 60 days. % ILS (increase in life span) is based on median survival.

L1210 leukemia cells [1] = test: Reversal of L1210 growth inhibition by salvageable nucleosides; assay type: cell-based, mouse
Experimental: Reversal studies were conducted as follows: […], 85027 or 5-FdUr were added at various concentrations near their IC50 to cultures of L1210 leukemia cells, maintained in PRMI 1640 medium supplemented with 10% fetal calf serum and 16mM HEPES, pH 7.2 as described in Example 9. Nucleosides including thymidine (1×10^-5 M), uridine (1×10^-4 M), deoxyuridine ([…]), adenosine (1×10^-4 M), or guanosine (1×10^-5 M) were also added to identical drug (85024, 85027 or 5-FdUr) containing L1210 leukemia cultures. Cellular growth inhibition or its prevention by the addition of salvageable nucleosides was determined 48 hours later by counting cells using an electronic Coulter Counter.

L1210/5-FU leukemia = test: Therapeutic activity in DBA/2N mice with 5-FU resistant L1210 leukemia; assay type: in vivo, mouse (DBA/2N female); settings: for Median survival: control 9; for Mean ± SD survival: control 9.25 ± 0.2
Experimental: (§3) In conducting the evaluations, the activity was tested against intraperitoneal (i.p.) implanted leukemia in mice.
(§4) DBA/2N female mice (20 g) were implanted i.p. with 1×10^6 L1210 leukemia cells on day 0. Mice were weighed and inspected for tumor growth and survival daily. […] Dosages varied from 1 to 800 mg/kg/day (mkd).
(§5) Survival time was measured in days after tumor implantation. % ILS (increase in life span) was based on mean survival.
(§6) Testing was followed as described in the NCI protocol and evaluation by comparison of median survival time (ST) of the treated animals to that of the control animals by the percentage increase in % ILS.
(§7) Drug resistant L1210 leukemia cell sublines were obtained from the National Cancer Institute. […] Eight mice were used as controls and five mice for each drug dosage group. Drugs were administered i.p. once per day on days 1, 2, 3, 4 and 5.

M5076 sarcoma = test: Therapeutic activity in C57/B16 mice with s.c. M5076 sarcoma; assay type: in vivo, mouse (C57/B16 female); settings: days 3-7; for % ILS (increase in life span): based on median survival; for Half Maximal Tumor Volume: control 32; for Median survival: control 37
Experimental: as §1, §2

L1210/ara-C leukemia = test: Therapeutic activity in DBA/2N mice with ara-C resistant L1210 leukemia; settings: for Median survival: control 7; for Mean ± SD survival: control 7.1 + 0.1
Experimental: as §3, §4, §5, §6, §7

L1210 leukemia cells [2] = test: L1210 leukemia cell growth inhibition (48 hr, Coulter counter); assay type: cell-based, mouse; settings: Mus musculus, L1210, RPMI 1640, 10% fetal calf serum
Experimental: Compounds 85024, 85023, 85058, 85027 and 85060 having a glycosidic linkage between the 2'carbon of the arabinose (in pyranose configuration) and base were evaluated for their growth inhibitory action on L1210 leukemia cells maintained in RPMI 1640 medium supplemented with 10% fetal calf serum and 16 mM HEPES, pH 7.2. Cellular growth inhibition was determined by incubating […] for 48 hr in 2 ml of media containing varying concentrations of drugs. Cell growth inhibition (50% growth inhibitory concentration, IC50) was determined after counting cells with a Coulter counter (Bernacki et al., Cancer Res. 45, 695, 1985). Drug concentrations which inhibited cell growth by 50% (IC50) are listed for each compound in Table 1.

Structure (SMILES): COC1OC[C@@H](OC(C)=O)[C@@H](OC(C)=O)[C@]1(F)n1ccc(=O)[nH]c1=O (stereo partly drawn) [compound 85024, Methyl 3,4-di-0-acetyl-2-deoxy-2(R)-[1H,3H-2,4-dioxo-1-pyrimidinyl]-2-fluoro-α-D-arabinopyranoside [5a] and methyl 3,4-di-0-acetyl-2-deoxy-2(R)-[1H,3H-2,4-dioxo-1-pyrimidinyl]-2-fluoro-β-D-arabinopyranoside [6a]]
- effect on tumor size (Lewis lung carcinoma; 400 mg/kg/day i.p., days 3-7): statistically significant decrease in tumor size
- increase of median day to reach half maximal tumor size (Lewis lung carcinoma; 400 mg/kg/day i.p., days 3-7, normalized for animal weight, from day 19 to 23): 4 days
- Survival Range (Lewis lung carcinoma; 50 mkd × 5 i.p., days 3-7): 24 to 31 days
- % ILS (increase in life span) (Lewis lung carcinoma; 50 mkd × 5 i.p., days 3-7): 22%
- Half Maximal Tumor Volume (Lewis lung carcinoma; 50 mkd × 5 i.p., days 3-7, control 19, p < 0.05): 20.5 days
- Median survival (Lewis lung carcinoma; 50 mkd × 5 i.p., days 3-7): 27 days
- Survival Range (Lewis lung carcinoma; 200 mkd × 5 i.p., days 3-7): 17 to 32 days
- % ILS (increase in life span) (Lewis lung carcinoma; 200 mkd × 5 i.p., days 3-7): 40%
- Half Maximal Tumor Volume (Lewis lung carcinoma; 200 mkd × 5 i.p., days 3-7, control 19): 21 days
- Median survival (Lewis lung carcinoma; 200 mkd × 5 i.p., days 3-7): 31 days
- Survival Range (Lewis lung carcinoma; 400 mkd × 5 i.p., days 3-7): 21 to 31 days
- % ILS (increase in life span) (Lewis lung carcinoma; 400 mkd × 5 i.p., days 3-7, p < 0.05): 40%
- Half Maximal Tumor Volume (median day to reach half maximal tumor size) (Lewis lung carcinoma; 400 mkd × 5 i.p., days 3-7, control 19, p < 0.05): 23 days
- Median survival (Lewis lung carcinoma; 400 mkd × 5 i.p., days 3-7): 31 days
- effect on lifespan and tumor size (Lewis lung carcinoma; s.c. solid tumors (Lewis lung carcinoma or M5076 sarcoma)): increased their lifespan and significantly decreased tumor size
- reversal of cellular cytotoxicity by exogenous nucleosides (L1210 leukemia cells [1]; exogenous thymidine, uridine or deoxyuridine, tissue culture): not reversed by exogenous thymidine, uridine or deoxyuridine
- effect of added nucleoside on the IC50 (L1210 leukemia cells [1]; thymidine (1×10^-5 M), uridine (1×10^-4 M) or deoxyuridine (1×10^-5 M)): < 10%
- Mean Animal Weight (L1210/5-FU leukemia; 100 mkd × 5 i.p.): 20.6 g
- Survival Range (L1210/5-FU leukemia; 100 mkd × 5 i.p.): 9 to 12 days
- % ILS (increase in life span) (L1210/5-FU leukemia; 100 mkd × 5 i.p., P <.05): 22%
- Median survival (L1210/5-FU leukemia; 100 mkd × 5 i.p.): 11 days
- Mean ± SD survival (L1210/5-FU leukemia; 100 mkd × 5 i.p.): 10.6 ± .5 days
- Mean Animal Weight (L1210/5-FU leukemia; 200 mkd × 5 i.p.): 20.2 g
- Survival Range (L1210/5-FU leukemia; 200 mkd × 5 i.p.): 9 to 11 days
- % ILS (increase in life span) (L1210/5-FU leukemia; 200 mkd × 5 i.p., P 0.1): 11%
- Median survival (L1210/5-FU leukemia; 200 mkd × 5 i.p.): 10 days
- Mean ± SD survival (L1210/5-FU leukemia; 200 mkd × 5 i.p.): 10 ± 0.4 days
- % ILS (increase in life span) (L1210/5-FU leukemia; 500 mkd × 5 i.p.): -34%
- Mean Animal Weight (L1210/5-FU leukemia; 500 mkd × 5 i.p.): 15.9 g
- Survival Range (L1210/5-FU leukemia; 500 mkd × 5 i.p.): 6 to 7 days
- Median survival (L1210/5-FU leukemia; 500 mkd × 5 i.p.): 6 days
- Mean ± SD survival (L1210/5-FU leukemia; 500 mkd × 5 i.p.): 6.4 ± 0.2 days
- effect on tumor size (M5076 sarcoma; 400 mg/kg/day i.p.): statistically significant decrease in tumor size
- % ILS (increase in life span) (M5076 sarcoma; 50 mkd × 5 i.p.): 0%
- Half Maximal Tumor Volume (M5076 sarcoma; 50 mkd × 5 i.p., p < 0.05): 35 days
- Median survival (M5076 sarcoma; 50 mkd × 5 i.p.): 36 days
- Survival Range (M5076 sarcoma; 50 mkd × 5 i.p., one animal survived for 60 days but bore a large, frank tumor): 34 to 60 days
- Survival Range (M5076 sarcoma; 200 mkd × 5 i.p.): 36 to 42 days
- % ILS (increase in life span) (M5076 sarcoma; 200 mkd × 5 i.p.): 0%
- Half Maximal Tumor Volume (M5076 sarcoma; 200 mkd × 5 i.p.): 35 days
- Median survival (M5076 sarcoma; 200 mkd × 5 i.p.): 37 days
- Survival Range (M5076 sarcoma; 400 mkd × 5 i.p.): 33 to 47 days
- % ILS (increase in life span) (M5076 sarcoma; 400 mkd × 5 i.p.): 14%
- Half Maximal Tumor Volume (M5076 sarcoma; 400 mkd × 5 i.p., p < 0.05): 38 days
- Median survival (M5076 sarcoma; 400 mkd × 5 i.p.): 42 days
- Mean Animal Weight (L1210/ara-C leukemia; 100 mkd × 5 i.p.): 20.7 g
- Survival Range (L1210/ara-C leukemia; 100 mkd × 5 i.p.): 8 to 9 days
- % ILS (increase in life span) (L1210/ara-C leukemia; 100 mkd × 5 i.p., NS): 28%
- Median survival (L1210/ara-C leukemia; 100 mkd × 5 i.p.): 9 days
- Mean ± SD survival (L1210/ara-C leukemia; 100 mkd × 5 i.p.): 8.6 ± 0.2 days
- Mean Animal Weight (L1210/ara-C leukemia; 200 mkd × 5 i.p.): 21.0 g
- Survival Range (L1210/ara-C leukemia; 200 mkd × 5 i.p.): 8 to 9 days
- % ILS (increase in life span) (L1210/ara-C leukemia; 200 mkd × 5 i.p., P <.01): 28%
- Median survival (L1210/ara-C leukemia; 200 mkd × 5 i.p.): 9 days
- Mean ± SD survival (L1210/ara-C leukemia; 200 mkd × 5 i.p.): 8.8 ± 0.2 days
- Mean Animal Weight (L1210/ara-C leukemia; 500 mkd × 5 i.p.): 18.6 g
- Survival Range (L1210/ara-C leukemia; 500 mkd × 5 i.p.): 10 to 11 days
- % ILS (increase in life span) (L1210/ara-C leukemia; 500 mkd × 5 i.p., P <.01): 57%
- Median survival (L1210/ara-C leukemia; 500 mkd × 5 i.p.): 11 days
- Mean ± SD survival (L1210/ara-C leukemia; 500 mkd × 5 i.p.): 10.8 ± 0.2 days
- cross resistance to ara-C and 5-FU (L1210/ara-C leukemia; summary of L1210/ara-C and L1210/5-FU tests): not cross resistant
- IC50 (L1210 leukemia cells [2]): 55 µM
